{"source": "patent US20180235942A1", "about": "(priority 2015, published 2018)", "key": {"[1]": {"tested_on": "healthy elderly male and female subjects", "parameters": "species or system human", "conditions": "in vivo, po"}, "[2]": {"tested_on": "healthy adults subjected to a 5-hour sleep restriction", "test": "Daytime performance after 5-hour sleep restriction (MSLT, SWS, KSS)", "assay_type": "in vivo, human", "method": "The study included a 2-night single-blind placebo run-in period, a 4-night double-blind treatment period during which sleep was restricted to 5 hours and a 2-night single-blind placebo run-out period. The study included healthy male and female volunteers 18 to <55 years of age.\nThe primary endpoints included observations based on the Multiple Sleep Latency Test (MSLT) and Slow Wave Sleep (SWS) assessment."}, "insomnia": {"tested_on": "insomnia", "conditions": "three-month efficacy study; cited from earlier work"}, "[3]": {"tested_on": "healthy, male and female subjects", "test": "Driving performance study, real driving on the road after evening or middle-of-the-night dosing", "assay_type": "in vivo, human", "conditions": "for effect on driving: gaboxadol 15 mg; for effect on memory test, body sway, DSST or critical tracking: in vivo", "from_the_text": "The study participants included healthy, male and female subjects between 21 and 45 years of age, with a valid drivers license for at least 3 years.\nFollowing a cognitive and psychomotor test battery, the driving test started at 9 am and lasted for one hour."}, "[4]": {"tested_on": "normal healthy adult subjects", "test": "Intravenous and oral tolerability and safety in healthy adult subjects", "assay_type": "in vivo, human", "from_the_text": "There was a washout of 4 days between each treatment period.\nThe study included healthy, male and female subjects between 18 and 45 years of age within 30% of ideal weight. The subjects in Part 1 of the study could be of either gender, but within Part 2 of the study there had to be at least 4 subjects of each gender."}, "clinical": {"test": "clinical", "conditions": "both, human, in vivo"}, "[5]": {"tested_on": "patients with a history of drug abuse", "conditions": "cited from earlier work"}, "[6]": {"conditions": "middle-of-the-night administration, zolpidem 10 mg"}}, "note": "Where two headings read alike, the source gives them in different places."}
{"smiles": "CCN(CC)CCN1C(=O)CN=C(c2ccccc2F)c2cc(Cl)ccc21", "note": "[Flurazepam]", "values": [{"measurement": "residual effect on Choice Reaction Time and Critical Flicker Fusion", "setting": "[1]", "value": "showed significant effect"}]}
{"smiles": "Oc1noc2c1CCNC2", "note": "[gaboxadol, 4,5,6,7-tetrahydroisoxazolo [5,4-c]pyridine-3-ol]", "values": [{"measurement": "daytime sleepiness versus placebo (MSLT)", "setting": "[2]; 15 mg, Sleep Restriction period, p=0.047, 1 sided", "value": "significantly less daytime sleepiness"}, {"measurement": "MSLT, longer than placebo on average", "setting": "[2]; 15 mg, last two Sleep Restriction days", "value": 2.01, "unit": "min"}, {"measurement": "slow wave sleep (SWS) versus placebo", "setting": "[2]; Sleep Restriction period, p<0.001, 1 sided", "value": "significantly more SWS"}, {"measurement": "biophysiological measures of stress (heart rate variability, cortisol levels, catecholamine levels, body temperature) versus placebo", "setting": "[2]; in vivo", "value": "no differences"}, {"measurement": "daytime performance, neurocognitive battery effect sizes", "setting": "[2]; in vivo", "value": "no strong evidence that gaboxadol improves daytime performance"}, {"measurement": "Karolinska Sleepiness Score (KSS), less than placebo on average", "setting": "[2]; last two Sleep Restriction days, p=0.058, 1 sided, LDA model", "value": 0.68}, {"measurement": "SWS, longer than placebo on average", "setting": "[2]; last two Sleep Restriction nights", "value": 20.53, "unit": "min"}, {"measurement": "effects in sleep onset and sleep maintenance", "setting": "insomnia", "value": "failed to show significant effects"}, {"measurement": "tolerability", "setting": "[3]; evening and middle-of-the-night dose", "value": "well tolerated"}, {"measurement": "effect on driving compared with 0.05% blood alcohol concentration", "setting": "[3]; evening dose, 15 mg", "value": "less than the effect observed at a 0.05% blood alcohol concentration"}, {"measurement": "effect on driving", "setting": "[3]; evening dose, zopiclone 7.5 mg", "value": "statistically significant effect"}, {"measurement": "most frequent adverse events", "setting": "[3]; evening treatment", "value": "headache and somnolence"}, {"measurement": "effect on memory test, body sway, DSST or critical tracking", "setting": "[3]", "value": "no effect"}, {"measurement": "effect on driving", "setting": "[3]; [6]", "value": "clinically relevant impairing effect"}, {"measurement": "most frequent adverse events", "setting": "[3]; middle-of-the-night treatment", "value": "dizziness, nausea and somnolence"}, {"measurement": "most common clinical adverse experiences", "setting": "[4]; both parts of the study", "value": "somnolence and dizziness"}, {"measurement": "serious adverse experiences", "setting": "[4]; both parts of the study", "value": "no serious adverse experiences reported"}, {"measurement": "tolerability", "setting": "[4]; single intravenous doses of 5 and 10 mg, single oral doses from 2.5 to 20 mg", "value": "generally well tolerated"}, {"measurement": "bioavailability", "setting": "clinical", "value": 92, "unit": "%"}, {"measurement": "residual effect on Choice Reaction Time and Critical Flicker Fusion", "setting": "[1]", "value": "did not show residual effect"}, {"measurement": "residual effects on other measurements (MSLT, DSST, Tracking, Memory tests, Body Sway, Leeds Sleep Evaluation Questionnaire)", "setting": "[1]", "value": "did not show any signs of residual effects"}, {"measurement": "Renal clearance (CLR)", "setting": "human, in vivo", "value": "greater than glomerular filtration rate"}, {"measurement": "steady-state volume of distribution (Vss)", "setting": "human, in vivo, iv", "value": "moderate"}, {"measurement": "systemic clearance (CL)", "setting": "human, in vivo, iv", "value": "moderate"}, {"measurement": "AUC0-inf and Cmax versus dose", "setting": "oral administration", "value": "increased with increasing dose"}, {"measurement": "AUC0-inf and Cmax versus dose", "setting": "single intravenous doses", "value": "increased with increasing dose"}, {"measurement": "psychiatric adverse events", "setting": "[5]", "value": "steep increase in psychiatric adverse events"}]}
{"smiles": "Cc1ccc(-c2nc3ccc(C)cn3c2CC(=O)N(C)C)cc1", "note": "[zolpidem]", "values": [{"measurement": "effect on driving", "setting": "[3]; [6]", "value": "numerically greater effect"}]}
{"smiles": "CN1CCN(C(=O)OC2c3nccnc3C(=O)N2c2ccc(Cl)cn2)CC1", "note": "(stereo not shown) [zopiclone]", "values": [{"measurement": "effect on driving", "setting": "[3]; evening dose, zopiclone 7.5 mg", "value": "numerically greater effect"}, {"measurement": "effect on memory test, body sway, DSST or critical tracking", "setting": "[3]", "value": "had effect on several of these tests"}]}
